Measured values reported in patent publication US20200268832A1, “COMPOSITIONS FOR DELIVERY TO AND TREATMENT OF ATHEROSCLEROTIC PLAQUES” (Sanford Burnham Prebys Medical Discovery Institute, priority 2015, published 2020).
“Also recorded” adds a separate entry of the source. Bridges are numbered along the chain shown (N, C = ends). Where no end group is shown, it is not given here. FAM = 5(6)-carboxyfluorescein; Ahx = NCCCCCC(=O)O

Key:
[1] = target: T1, p32 protein (Homo sapiens, UniProt Q07021); assay: Fluorescence polarization assay: displacement of FAM-TT1 from p32 (HTS, dose response, unlabeled peptide competition); assay type: binding; settings: for inhibition at 25 µM: high-throughput screen hits, inhibition of TT1-p32 interaction, library compounds 25 μM (Table 1), b410 says 100 μM; for inhibition at 100 µM: highest concentration used, read-out: inhibition of FAM-TT1 binding to p32 in FP assay; for dose-dependent inhibition of FAM-TT1 binding to p32: 8.25 μM to 100 μM
T1 construct: 6xHis; host or cells: Rosetta-gami-2 cells (Novagen); an E. coli strain by own knowledge
T1 sequence (Q07021 74-282): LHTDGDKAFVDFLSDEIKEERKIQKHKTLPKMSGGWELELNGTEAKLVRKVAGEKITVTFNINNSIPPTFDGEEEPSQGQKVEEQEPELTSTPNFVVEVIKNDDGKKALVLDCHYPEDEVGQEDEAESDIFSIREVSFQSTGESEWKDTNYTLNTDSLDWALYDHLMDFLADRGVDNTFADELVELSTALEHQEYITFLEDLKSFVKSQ
Protocol: Fluorescence polarization (FP)-based assay was used for solution-based screening of compound libraries for p32 binding compounds. […] In FP assay, peptide conjugated with a fluorescent label (fluorescein-AM, FAM) is excited with polarized light. […] 6×-His-Tagged p^32 was expressed in Rosetta-gami-2 cells (Novagen). The protein was purified by IMAC using HIS-select resin (Sigma) with an imidizole gradient from 20-300 mM and eluted fractions were analyzed on analytical SDS-PAGE. […] Fluorescence polarization is given as milli-polarization (mP) value, which is obtained from equation (1):
mP=1000*(S−P)/(S+P), (Eq. 1)
(§1) The assay was initially set up in 20 μl well volume in 384 well plate (Corning Life Sciences), and measurements were carried out using PheraStar FS plate reader (BMG LABTECH, Ortenberg, Germany) in quadruplicate. Peptide and protein stock solutions were diluted to desired concentration with assay buffer (50 mM BIS-TRIS pH 7.4, 0.05% Tween20, 1 mM DTT). FAM-labeled peptides were protected from light during the experiment to avoid photobleaching. Optimal concentration of fluorescein (FAM) labeled-peptides for the assay was determined by measuring the limit of detection (LOD), signal-to-background ratio (S/B), and stability of mP value over series of peptide concentrations. In the binding assay, the concentration of FAM-peptide was kept constant, and the FP was measured over the range of target protein concentrations. The peptide dissociation constant (KD) was obtained by fitting the binding curve into Michaelis-Menten kinetics in GraphPad Prism-software (GraphPad Software, Inc., CA, USA).
FAM-TT-1 and p32 solutions are prepared just before experiment, and stored on ice during the screen; the peptide is shielded from light. • 1. […] Dispense 1.5 μL of assay buffer (50 mM BIS-TRIS pH 7.4, 0.05% Tween 20, 1 mM DTT) into columns 1-4 • 3. […] Dispense 37.5 nL of compounds (2 mM) into columns 5-44 • 5. Spin plate • 6. Incubate 20 min • 7. Dispense 1.5 μL FAM-TT-1 peptide (20 nM) into all columns • 8. Shake plate and spin plate • 9. Incubate 25 min • 10. Read plate on PheraStar FS
Chemical library of ˜50,000 compounds from ChemBridge (San Diego, Calif.) was screened in High-Throughput Screening Facility at Conrad Prebys Center for Chemical Genomics (Sanford-Burnham Medical Research Institute, La Jolla, Calif.). […] Peptide and protein were diluted immediately prior to screening, kept on ice during screening, and FAM-peptide was protected from light throughout the experiment. […]

[2] = target: T2, b1b2 domain of NRP-1 (Homo sapiens, UniProt O14786); assay: Fluorescence polarization displacement of FAM-RPARPAR from NRP-1; assay type: binding; settings: for effect on RPARPAR peptide binding to NRP-1: specificity assay, up to 100 μM
T2 sequence (O14786 273-586 limits assumed): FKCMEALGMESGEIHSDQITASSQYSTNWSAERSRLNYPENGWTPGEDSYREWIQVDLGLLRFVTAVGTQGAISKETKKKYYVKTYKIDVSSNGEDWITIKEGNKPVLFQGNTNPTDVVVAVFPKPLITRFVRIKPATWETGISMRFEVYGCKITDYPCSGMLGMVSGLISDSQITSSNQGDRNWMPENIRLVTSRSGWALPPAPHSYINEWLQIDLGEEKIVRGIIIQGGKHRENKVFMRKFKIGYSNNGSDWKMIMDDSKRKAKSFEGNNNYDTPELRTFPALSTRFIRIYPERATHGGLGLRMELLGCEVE
Protocol: Results of the high-throughput screen were confirmed in dose response tests. 8.25 μM to 100 μM dilutions of the compounds that displaced FAM-peptide from p32 were used in competition with FAM-peptide as described in previous section. Specificity of the hit compounds was verified by examining their binding to a different protein, b1b2 domain of NRP-1 (Vander Kooi et al., Proc. Natl. Acad. Sci. U.S.A., 10.1073/pnas.0700043104). Experimental method for NRP-1 b1b2 was developed and validated similarly to p32, using FAM-RPARPAR peptide as a known peptide ligand for NRP-1. The displacement of FAM-RPARPAR from NRP-1 protein by the hit compounds was studied in 384-well format, as described above.

[3] = target: T1, p32 protein; assay: TT1 phage binding inhibition assay (ELISA-type); settings: 100 μM compound
Protocol: The binding of individual phage to p32 was verified using ELISA-type of phage binding assay. 96-well plates (Corning Life Sciences, Tewksbury, Mass., USA) were coated with 100 μL of 5 μg/mL p32 in PBS at 4° C. overnight, washed 3 times with 200 μL of PBST (PBS+0.05% Tween-20), blocked with 200 μL of 0.5% bovine serum albumin (BSA) in PBST for 1 h at 37° C., and washed 3 times with PBST. Phages (1.11*10^8 pfu in 100 μL PBST) were added to p32-coated/BSA-blocked wells, the plate was incubated at 4° C. overnight, and washed 3 times with PBST. Subsequently, the plates were incubated with 100 μL in-house prepared polyclonal rabbit anti-T7 antibody diluted 1:1000 in PBST for 1 h at 4° C., and washed 3 times with washing buffer. Horseradish peroxidase (HRP)-labeled anti-rabbit IgG (Sigma-Aldrich) was diluted 1:1000 in PBS, and 100 μL was added to the wells, followed by 1 h incubation at 4° C. and washing 3 times. Next, 100 μL of OPD silver and gold substrate (Sigma-Aldrich) was added to the wells and incubated at room temperature until visible color was observed (<30 min). The reaction was stopped by adding 50 μL of 1M H2SO4, and the plate was read at 492 nm (Varioskan Flash, Thermo Scientific, Waltham, Mass., USA).
The ability to inhibit TT1-phage binding to p32 protein was used as a secondary assay to verify the hit compounds. The competition assay was based on the phage binding assay described above with minor modifications. ELISA plates were coated with 2.5 μg/mL p32, incubated with phages (1.11*10^8 pfu in 100 μL PBST) and 100 μM hit compounds at 4° C. overnight, and followed by antibody incubation and chromogenic reaction. Negative controls included DMSO at concentration it was used to dissolve the hit compounds.

[4] = target: T1, p32 protein; assay: NMR 1D 1H-aliph spectra of p32 with compounds; assay type: binding; settings: 5 μM p32; compounds 100 and 500 μM; TT1 70 μM
Protocol: FIGS. 3A and 3B are graphs showing NMR based evaluation of binding of compounds 4014008 and 7933989 to P32 protein. The ID ^1H-aliph spectra of 5 μM P32 in the absence (bottom) and presence of compounds #4014008 (A) and #7933989 (B) at 100 μM (second from bottom) and 500 μM (second from top) were collected. As a control, the spectrum of p32 in the presence of the known peptide binder, TT1 at 70 μM, was also collected (top).
All the NMR experiments were carried out on a Bruker Avance 700 spectrometer equipped with a TCI cryoprobe at T=293 K. For structure determinations, the peptide concentration was 100 μM in the NMR buffer in presence of 150 μM of ZnCl2. One-dimensional (1D) 1H spectra were acquired with a spectral width of 8417.51 Hz, relaxation delay 1.0 s, 8 k data points for acquisition and 16 k for transformation.

[5] = test system: atherosclerotic plaques; assay: Plaque homing of FAM-labeled peptides in ApoE null mice on high-fat diet; settings: 100 μg FAM-labeled peptide IV, one hour
Description: One hour later, the mice can be perfused through the heart under anesthesia, and tissues were collected. Accumulation of FAM-labeled peptides can be visualized with UV excitation. Atherosclerotic aortas can be sectioned at the aortic root level, and examined by confocal microscopy. […] CD31 staining can be used to visualize the endothelium over the plaque.
One hour later, the mice were perfused through the heart under anesthesia, and tissues were collected. Accumulation of FAM-labeled peptides was visualized with UV excitation. Atherosclerotic aortas were sectioned at the aortic root level, and examined by confocal microscopy. […] CD31 staining was used to visualize the endothelium over the plaque.

[6] = target: T3, b1b2 domain of neuropilin-1 (NRP-1) (Homo sapiens, UniProt O14786); assay: Fluorescence polarization binding of FAM-peptide to NRP-1
T3 sequence (O14786 273-586 limits assumed): T2 sequence (O14786 273-586 limits assumed)
Protocol: FIG. 8 is a graph showing specificity of TT1 binding. Specificity of TT1 was further evaluated by measuring the binding of FAM-TT1 to recombinant non-target protein, b1b2 domain of neuropilin-1 (NRP-1). The binding was studied by fluorescence polarization. […] Each data point presents average±S.D., n=4-6.
as §1, with “USA). […]” for “USA).”

[7] = in vivo
Description: Toxicity of peptide, compounds, and compositions can be assessed for toxicity. Useful factors for assessing toxicity include body weight, serum cholesterol and triglyceride, and weight of liver and spleen. Liver and kidney functions can be monitored by blood tests.

Molecule | inhibition at 25 µM [1] | inhibition at 100 µM [1] | effect on RPARPAR peptide binding to NRP-1 [2] | inhibition at 100 µM [3] | also measured
Nc1nccc(N2CCC(C3CCN(Cc4cccnc4)CC3)C2)n1 (stereo not drawn) [Compound 54778828, 4-{3-[1-(3-pyridinylmethyl)-4-piperidinyl]-1-pyrrolidinyl}-2-pyrimidinami] | 29.4% | – | – | – | dose-dependent inhibition of FAM-TT1 binding to p32 [1]: only marginally active
FAM-LyP-1: FAM-labeled LyP-1 peptide (CGNKRTRGC; disulfide 1-9 (inferred); not fully specified (N-terminus)) | – | – | – | – | homing to atherosclerotic plaques [5]: signal was seen inside plaques
RPARPAR [reference compound] | – | – | – | – | inhibition (dislocation) of FAM-TT1 binding to p32 by unlabeled peptide ([1]; unlabeled peptides titrated up to 100 μM): not and did not dislocate FAM-TT1; binding to b1b2 domain of NRP-1 [6]: showed strong affinity
C[C@@H](O)[C@@H]1NC(=O)[C@H](CCCNC(=N)N)NC(=O)[C@H](CCCCN)NC(=O)[C@H](CC(N)=O)NC(=O)CNC(=O)[C@@H](N)CSSC[C@@H](C(=O)O)NC(=O)CNC(=O)[C@H](CCCNC(=N)N)NC1=O [LyP-1, CGNKRTRGC] | – | – | – | – | toxicity (body weight, serum cholesterol and triglyceride, weight of liver and spleen, liver and kidney functions) [7]: no differences between LyP-1 and control groups
Cc1ccc(-c2cnc(N)c(N3CCC(O)C3)n2)c(-n2cccn2)c1 (stereo not drawn) [Compound 88361068, 1-{3-amino-6-[4-methyl-2-(1H-pyrazol-1-yl)phenyl]pryazin-2-yl}pyrrolidin-3-] | 30.8% | 65 to 75% | no effect | 20% | –
FAM-TT1: FAM-labeled TT1 peptide, 5(6)-carboxyfluorescein with 6-aminohexanoic acid spacer ({FAM-Ahx}-CKRGARSTC; disulfide 1-9 (inferred)) | – | – | – | – | binding to b1b2 domain of NRP-1 [6]: did not show binding; homing to atherosclerotic plaques [5]: signal was seen inside plaques

Now from value to molecule, other results behind:

inhibition at 25 µM [1] | inhibition at 100 µM [1] | effect on RPARPAR peptide binding to NRP-1 [2] | inhibition at 100 µM [3] | Molecule | also measured
40.5% | 80% | no effect | 75% | CC1(C)CN=C(NCCNC2=NCC(C)(C)S2)S1 [Compound 7933989] | perturbations in 1D 1H-aliphatic spectra of p32 [4]: caused similar perturbations; also recorded: shift in the peak at around −0.3 ppm
39.5% | – | – | – | Cc1c(O)ccc2c(C(F)(F)F)cc(=O)oc12 [Compound 6367577, 7-hydroxy-8-methyl-4-(trifluoromethyl)-2H-chromen-2-one] | dose-dependent inhibition of FAM-TT1 binding to p32 [1]: less effective than the other active compounds; FP level in the presence of compound ([2]; highest concentration): negative value
20.7% | 65 to 75% | no effect | 20% | Cc1nc2nc3c(cn2n1)C(=O)CC(c1cccs1)C3 (stereo not drawn) [Compound 9132086, 2-methyl-6-(2-thienyl)-6,7-dihydro[1,2,4]triazolo [5,1-b]quinazolin-8(5H)-one] | –
22.5% | 65 to 75% | – | 20% | CN1CCc2onc(-c3ccc(F)c(F)c3)c2C1 [Compound 91984046] | –
